According to article PMC6934184, “Selective DNA-PKcs inhibition extends the therapeutic index of localized radiotherapy and chemotherapy” (The Journal of Clinical Investigation, 2019):

Target: T1, NEK4 (Homo sapiens, UniProt P51957)
T1 construct: purchased Thermo Fisher Scientific (Life Technologies) SelectScreen
Test: SelectScreen Z'LYTE
Format: biochemical
How it was run: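 NU5455 was profiled across the SelectScreen Broad panel of kinase activity and binding assays. Z'LYTE reactions such as CSF1R ran at apparent Km ATP, while the Adapta CAMK1 assay used ATP listed as 10. Values are given as percent.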

T1 sequence (P51957 whole entry): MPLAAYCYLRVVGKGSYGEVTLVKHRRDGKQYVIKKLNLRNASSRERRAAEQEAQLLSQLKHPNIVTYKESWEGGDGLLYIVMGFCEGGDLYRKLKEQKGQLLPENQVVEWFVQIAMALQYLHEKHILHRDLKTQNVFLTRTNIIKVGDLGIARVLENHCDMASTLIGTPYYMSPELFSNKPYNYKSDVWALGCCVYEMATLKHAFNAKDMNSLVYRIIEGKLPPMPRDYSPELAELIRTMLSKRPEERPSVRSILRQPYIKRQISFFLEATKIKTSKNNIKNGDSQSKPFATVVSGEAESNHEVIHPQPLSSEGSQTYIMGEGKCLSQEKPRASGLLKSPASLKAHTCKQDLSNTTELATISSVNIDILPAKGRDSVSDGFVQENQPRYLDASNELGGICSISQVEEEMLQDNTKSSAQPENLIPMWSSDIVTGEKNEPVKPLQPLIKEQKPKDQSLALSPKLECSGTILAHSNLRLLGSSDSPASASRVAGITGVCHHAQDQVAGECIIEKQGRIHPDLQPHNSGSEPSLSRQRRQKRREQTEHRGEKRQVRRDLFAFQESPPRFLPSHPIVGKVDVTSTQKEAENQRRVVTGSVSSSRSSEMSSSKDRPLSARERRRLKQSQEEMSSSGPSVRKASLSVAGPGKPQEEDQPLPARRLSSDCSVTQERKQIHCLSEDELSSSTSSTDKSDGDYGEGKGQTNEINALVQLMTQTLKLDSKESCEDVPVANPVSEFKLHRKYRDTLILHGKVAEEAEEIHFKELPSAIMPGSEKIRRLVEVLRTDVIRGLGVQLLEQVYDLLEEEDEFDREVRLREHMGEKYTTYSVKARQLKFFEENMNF

SMILES: CN(C(=O)CN1CCOCC1)c1ccc2sc3c(-c4cccc5c(=O)cc(N6CC7CCC(C6)O7)oc45)cccc3c2c1 [NU5455]
- inhibition at 1 µM: -11.6%
